Earlier results on three molecules are cited in patent US10545077B2, “Solid phase microextraction coating” (JP SCIENTIFIC LIMITED, priority 2016, dated 2020).

Take `CC(C)NCC(O)COc1ccc(COCCOC(C)C)cc1` (stereo not drawn) [Bisoprolol]: the LogP is 1.87.

`CCCC1O[C@@H]2C[C@H]3[C@@H]4CCC5=CC(=O)C=C[C@]5(C)[C@H]4[C@@H](O)C[C@]3(C)[C@]2(C(=O)CO)O1` (stereo partly drawn) [Budesonide]: the LogP was 2.42.

For the molecule `C[C@]12C=CC(=O)C=C1CC[C@@H]1[C@@H]2[C@@H](O)C[C@@]2(C)[C@H]1CC[C@]2(O)C(=O)CO` [Prednisolone], the LogP is recorded as 1.66.
